Laboratory results reported in patent US9938560B2, “Methods for identifying modulators of Ras using nonlinear techniques” (Biodesy, Inc., priority 2012, dated 2018).

Tests used:
Protein X [1] = test: SHG (Biodesy) titration of ligands on Protein X bound to a supported lipid bilayer; format: binding; settings: Protein X on SLB; endpoint mode after 3 minutes of exposure; average of different days
Description: PyMPO-SE is coupled to His-tagged Protein X using the protocol described in the above Examples. Unreacted dye is purified by gel filtration. The resulting dye:protein ratio is determined spectrophotometrically. The supported bilayer membrane with Ni-NTA lipid is prepared as described in the Examples above. Recombinant His-tagged Protein X is incubated with the lipid bilayer at 5 μM for 20 minutes to produce a baseline signal following wash-out of unbound Protein X. A single ligand (denoted 3, 4 or 5) is exposed to Protein X on the surface and changes to the baseline SHG signal are measured in real time. A titration of the shift in SHG signal for each of the ligands as a function of ligand concentration is performed in endpoint mode, comparing the SHG signal after 3 minutes of exposure to the ligand at a given concentration to the baseline signal before exposure to the ligand.

Protein X [2] = test: IC50 result for Protein X (independent biochemical assay)
Protein X [3] = test: Biacore binding to Protein X
GTP-bound K-RAS = GTP-bound K-RAS (Homo sapiens, UniProt P01116); settings: previously shown, Grant et al., 2011; cited from earlier work
Sequence of GTP-bound K-RAS (P01116 1-188 isoform P01116-2): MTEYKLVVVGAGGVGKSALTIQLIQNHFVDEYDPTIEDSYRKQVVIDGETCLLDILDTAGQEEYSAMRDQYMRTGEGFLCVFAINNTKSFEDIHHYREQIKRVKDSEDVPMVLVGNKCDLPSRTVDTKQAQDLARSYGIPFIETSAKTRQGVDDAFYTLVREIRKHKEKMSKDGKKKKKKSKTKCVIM

G12V K-Ras = target: T1, G12V K-Ras (Homo sapiens, UniProt P01116, G12V); test: SHG detection of structural change of constitutively active G12V K-Ras; format: binding; settings: 10 μM; PyMPO-maleimide at Cys 118; FIG. 6B
T1 construct: made in house
T1 sequence (P01116 1-188 isoform P01116-2 G12V): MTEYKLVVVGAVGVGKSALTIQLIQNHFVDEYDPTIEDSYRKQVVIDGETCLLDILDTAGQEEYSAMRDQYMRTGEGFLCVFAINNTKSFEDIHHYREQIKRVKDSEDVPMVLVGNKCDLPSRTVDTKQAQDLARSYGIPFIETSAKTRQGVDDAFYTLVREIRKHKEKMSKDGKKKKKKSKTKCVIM
Description: PyMPO-SE is coupled to a G12V constitutively active mutant K-Ras (Abrams et al., Semin Oncol. 1996 February; 23(1):118-34) using one of the two protocols described in Example 3 above. Recombinant His-tagged (N-terminus) Ras proteins are prepared according to standard protocols (Hall et al., 2002, Proc. Nat. Acad. Sci., U.S.A., 99(19):12138-42). The Ras proteins prepared according to this protocol is bound to an SHG-active GTP analog (ATTO-390-GTP) or an SHG label is coupled to Cys 118 with PyMPO-maleimide, a cysteine-reactive dye in 0.1 M Tris pH 8.0, 20 mM NaCl, 0.5 mM TCEP, 5% glycerol and a 12:1 dye:protein ratio for one hour at room temperature. Unreacted dye is purified away by gel filtration. The resulting dye:protein ratio is determined spectrophotometrically.
Immobilized G12V mutant K-Ras is then exposed to compound 117028, which has been previously shown to decrease intracellular levels of GTP-bound K-RAS as well as to decrease activation of the Raf/Mek/Erk signaling pathway (Grant et al., 2011, PLoS One, 6(10):e25711, the disclosure of which is incorporated by reference herein). 10 μM of the compound in assay buffer is added over the wells followed by gentle mixing. Assay buffer was 20 mM Tris pH 8.0, 150 mM NaCl, 0.5 mM DTT, 0.15% DMSO. […]

wt H-Ras = target: T2, wt H-Ras (Homo sapiens, UniProt P01112); test: SHG detection of conformational change of labeled wt H-Ras tethered to a supported lipid bilayer; format: binding; settings: cysteine-labeled H-Ras, serial dilutions, n=3; read-out: EC50 from SHG concentration response curve
T2 construct: fused on or other part: N-terminal 6x histidine tag, used to tether to Ni-NTA lipids; PyMPO-maleimide dye on native cysteine(s)
T2 sequence (P01112 whole entry, the tested form may be a part): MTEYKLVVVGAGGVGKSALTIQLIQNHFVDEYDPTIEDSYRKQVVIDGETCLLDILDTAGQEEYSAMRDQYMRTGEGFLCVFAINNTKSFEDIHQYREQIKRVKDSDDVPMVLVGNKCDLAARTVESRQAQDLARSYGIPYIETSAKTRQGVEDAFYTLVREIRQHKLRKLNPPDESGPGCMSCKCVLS
Description: Recombinant His-tagged (N-terminus) H-Ras protein was prepared according to standard protocols (6). The Ras protein prepared according to this protocol is bound to GDP. The protein was then labeled with PyMPO-maleimide, a cysteine-reactive dye in 0.1 M Tris pH 8.0, 20 mM NaCl, 0.5 mM TCEP, 5% glycerol and a 12:1 dye:protein ratio for one hour at room temperature. Unreacted dye was purified away by gel filtration. The resulting dye:protein ratio was 0.7:1 was determined spectrophotometrically. Cysteine-labeled Ras was then coupled directly to the membrane.
We labeled Ras using a standard protocol in pH 8.3 sodium bicarbonate buffer (Invitrogen, Inc.) and purified it by gel filtration and dialysis. Amine-labeled Ras was then coupled directly to the membrane.
Immediately before applying DOPC/DGS NTA (Ni) lipids, microscope slides were cleaned with Piranha wash for 20 minutes. […] Lateral mobility of the bilayers was confirmed by fluorescence recovery after photobleaching as known in the art. […]
PyMPO-SE was coupled to His-tagged wt K-Ras (Novus) using one of two protocols. […] The resulting dye:protein ratio was 0.7:1 as determined spectrophotometrically. […]
PyMPO-SE exposed to a blank bilayer (no protein) followed by washing led to no signal above background. Thus, the signal detected in the presence of protein after labeling is due to labeling of the protein itself while immobilized on the membrane. […]

[4] = tested on: Raf/Mek/Erk signaling pathway; settings: previously shown, Grant et al., 2011; cited from earlier work

| Compound | EC50 (Protein X [1]) | IC50 (Protein X [2]) | Biacore Result (Protein X [3]) | intracellular levels of GTP-bound K-RAS (GTP-bound K-RAS) | effect on the conformation of G12V K-Ras (SHG), protein labeled at Cys 118 (G12V K-Ras) | EC50 (wt H-Ras) | activation of the Raf/Mek/Erk signaling pathway [4] |
| --- | --- | --- | --- | --- | --- | --- | --- |
| O=C(CN1CCOCC1)NC1=Nc2ncccc2C(=O)NN1 [Compound 3] | 670 nM | 950 nM | Binds | – | – | – | – |
| Oc1c(CN2CCN(c3ccccc3)CC2)cc(Br)c2cccnc12 [Compound 1, 5-bromo-7-[(4-phenylpiperazin-1-yl)methyl]quinolin-8-ol] | – | – | – | decrease | significant effect | 4400 nM | decrease |
